This experiment concerns BDF1 mice, P388 leukemia ip, median survival T/C. Kind of experiment: NCI In Vivo Anticancer Drug Screen. Data for tumor model P388 Leukemia (intraperitoneal) in B6D2F1 (BDF1) mice. To be noted: endpoint: median survival time, higher = longer survival. In short, it runs like this: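 Vehicle-dosed animals serve as the reference; survival of compound-dosed, tumour-implanted mice is divided by it.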

Where [1] appears, read: dose: 50.0 mg/kg/injection, schedule: Q01DX009 (ip), vehicle: saline with Tween-80.
[2] abbreviates: dose: 100.0 mg/kg/injection, schedule: Q01DX009 (ip), vehicle: saline with Tween-80.
The mark [3] stands for this setting: dose: 100.0 mg/kg/injection, schedule: Q01DX001 (ip), vehicle: Klucel (hydroxypropylcellulose) (HPC).
The mark [4] stands for this setting: dose: 200.0 mg/kg/injection, schedule: Q01DX001 (ip), vehicle: Klucel (hydroxypropylcellulose) (HPC).
Setting [5] is: dose: 400.0 mg/kg/injection, schedule: Q01DX001 (ip), vehicle: Klucel (hydroxypropylcellulose) (HPC).
Setting [6] is: dose: 200.0 mg/kg/injection, schedule: Q01DX009 (ip), vehicle: saline with Tween-80.

Where “and” joins values, the source holds several entries; their conditions need not be identical. Equal entries are not always repeated. Toxic doses and inconclusive results are not listed.

Regarding `CN=C(NN(C)C)c1ccc(NC(=O)c2ccc(C(=O)Nc3ccc(C(=NC)NN(C)C)cc3)cc2)cc1`, the T/C runs as follows: (dose: 4.0 mg/kg/injection, schedule: Q01DX009 (ip), vehicle: saline with Tween-80) 100 % of control; (dose: 9.0 mg/kg/injection, schedule: Q01DX009 (ip), vehicle: saline with Tween-80) 150 % of control.
For `CCCCNC(C)(C)CCl`, the T/C is, setting by setting: (dose: 1.56 mg/kg/injection, schedule: Q01DX009 (ip), vehicle: water) 95 % of control; (dose: 3.12 mg/kg/injection, schedule: Q01DX009 (ip), vehicle: water) 102 % of control; (dose: 3.12 mg/kg/injection, schedule: Q04DX003 (ip), vehicle: water) 106 % of control; (dose: 6.25 mg/kg/injection, schedule: Q04DX003 (ip), vehicle: water) 88 % of control; (dose: 12.5 mg/kg/injection, schedule: Q01DX009 (ip), vehicle: water) 95 % of control; (dose: 12.5 mg/kg/injection, schedule: Q04DX003 (ip), vehicle: water) 106 % of control. Besides, the T/C runs as follows: (dose: 25.0 mg/kg/injection, schedule: Q01DX009 (ip), vehicle: water) 111 % of control; (dose: 25.0 mg/kg/injection, schedule: Q04DX003 (ip), vehicle: water) 100 % of control and 106 % of control; (dose: 50.0 mg/kg/injection, schedule: Q01DX009 (ip), vehicle: water) 104 % of control.
On to `CN1C(=O)C23CC4=CC=CC(O)C4N2C(=O)C1(CO)SS3` (stereo not given), for which the T/C is, setting by setting: (dose: 0.19 mg/kg/injection, schedule: Q01DX009 (ip), vehicle: saline with Tween-80) 100 % of control; (dose: 0.38 mg/kg/injection, schedule: Q01DX009 (ip), vehicle: saline with Tween-80) 100 % of control; (dose: 0.75 mg/kg/injection, schedule: Q01DX009 (ip), vehicle: saline with Tween-80) 108 % of control and 109 % of control.
Take `Cc1nc(N)nc2nc[nH]c12`: the T/C runs as follows: (dose: 12.5 mg/kg/injection, schedule: Q01DX009 (ip), vehicle: saline with Tween-80) 94 % of control; (dose: 25.0 mg/kg/injection, schedule: Q01DX009 (ip), vehicle: saline with Tween-80) 96 % of control; under setting [1], 99 % of control; under setting [2], 96 % of control.
Turning to `FC(F)(F)/C([S-])=C(/[S-])C(F)(F)F.FC(F)(F)/C([S-])=C(/[S-])C(F)(F)F.FC(F)(F)/C([S-])=C(/[S-])C(F)(F)F.FC(F)(F)/C([S-])=C(/[S-])C(F)(F)F.[Fe+3].[Fe+3]`, the T/C is, setting by setting: (dose: 50.0 mg/kg/injection, schedule: Q01DX001 (ip), vehicle: saline with Tween-80) 100 % of control; (dose: 100.0 mg/kg/injection, schedule: Q01DX001 (ip), vehicle: saline with Tween-80) 104 % of control; (dose: 200.0 mg/kg/injection, schedule: Q01DX001 (ip), vehicle: saline with Tween-80) 104 % of control.
On to `CCOC(=O)c1ccc(NCc2cccc([N+](=O)[O-])c2)cc1`, for which the T/C was 115 % of control under setting [3], 100 % of control under setting [4] and 93 % of control under setting [5].
For `C=CCOC(=O)c1ccccc1N`, the T/C runs as follows: under setting [2], 118 % of control; (dose: 100.0 mg/kg/injection, schedule: Q04DX003 (ip), vehicle: saline with Tween-80) 110 % of control; under setting [6], 118 % of control; (dose: 200.0 mg/kg/injection, schedule: Q04DX003 (ip), vehicle: saline with Tween-80) 115 % of control; (dose: 400.0 mg/kg/injection, schedule: Q04DX003 (ip), vehicle: saline with Tween-80) 110 % of control.
For the compound `COC(C(=O)C(O)C(C)O)C1CC2C=C3C=C(OC4CC(OC5CC(O)C(OC)C(C)O5)C(OC(C)=O)C(C)O4)C(C)C(=O)C3=C(O)C2=C(O)C1OC1CC(OC2CC(OC3CC(C)(O)C(OC(=O)C(C)C)C(C)O3)C(O)C(C)O2)C(O)C(C)O1` (stereo not given), the T/C by setting is: (dose: 0.12 mg/kg/injection, schedule: Q01DX001 (ip), vehicle: other) 150 % of control; (dose: 0.25 mg/kg/injection, schedule: Q01DX001 (ip), vehicle: other) 204 % of control; (dose: 12.5 micrograms/kg/injection, schedule: Q01DX009 (ip), vehicle: saline) 111 % of control; (dose: 25.0 micrograms/kg/injection, schedule: Q01DX009 (ip), vehicle: saline) 111 % of control; (dose: 31.2 micrograms/kg/injection, schedule: Q01DX001 (ip), vehicle: saline) 165 % of control; (dose: 31.2 micrograms/kg/injection, schedule: Q04DX003 (ip), vehicle: saline) 190 % of control. Besides, the T/C is 190 % of control (dose: 31.2 micrograms/kg/injection, schedule: Q08DX002 (ip), vehicle: saline); 111 % of control (dose: 50.0 micrograms/kg/injection, schedule: Q01DX009 (ip), vehicle: saline); 150 % of control and 195 % of control (dose: 62.5 micrograms/kg/injection, schedule: Q01DX001 (ip), vehicle: saline); 210 % of control (dose: 62.5 micrograms/kg/injection, schedule: Q08DX002 (ip), vehicle: saline); 111 % of control (dose: 100.0 micrograms/kg/injection, schedule: Q01DX009 (ip), vehicle: saline); 230 % of control (dose: 125.0 micrograms/kg/injection, schedule: Q01DX001 (ip), vehicle: saline). The T/C (dose: 125.0 micrograms/kg/injection, schedule: Q08DX002 (ip), vehicle: saline) was 185 % of control; the T/C (dose: 250.0 micrograms/kg/injection, schedule: Q01DX001 (ip), vehicle: saline) was 240 % of control and 150 % of control; the T/C (dose: 500.0 micrograms/kg/injection, schedule: Q01DX001 (ip), vehicle: saline) is 108 % of control; the T/C (dose: 500.0 micrograms/kg/injection, schedule: Q08DX002 (ip), vehicle: saline) is 100 % of control.
With `CN(C)[C@@H]1C(=O)C(C(N)=O)=C(O)[C@@]2(O)C(=O)C3=C(O)c4c(O)ccc(Cl)c4[C@@](C)(O)[C@H]3C[C@@H]12`, the T/C runs as follows: (dose: 132.0 mg/kg/injection, schedule: Q01DX009 (ip), vehicle: saline) 122 % of control; (dose: 200.0 mg/kg/injection, schedule: Q01DX009 (ip), vehicle: saline) 122 % of control.
Regarding `O=C(O)CSc1ccc(NC(=O)NC2CCCCC2)cc1`, the T/C is, setting by setting: under setting [2], 105 % of control; under setting [6], 115 % of control; (dose: 400.0 mg/kg/injection, schedule: Q01DX009 (ip), vehicle: saline with Tween-80) 105 % of control.
For `CC1CCC2=C(C1)S(=O)(=O)CC2` (stereo not given), the T/C (dose: 6.25 mg/kg/injection, schedule: Q04DX002 (ip), vehicle: saline) is 103 % of control; the T/C (dose: 12.5 mg/kg/injection, schedule: Q04DX002 (ip), vehicle: saline) is 94 % of control; the T/C (dose: 25.0 mg/kg/injection, schedule: Q04DX002 (ip), vehicle: saline) was 103 % of control.
Take `COC(=O)CCCc1cc(O)c2c(c1O)C(=O)c1ccccc1C2=O`: the T/C (dose: 100.0 mg/kg/injection, schedule: Q01DX001 (ip), vehicle: saline sonified) is 100 % of control; the T/C (dose: 200.0 mg/kg/injection, schedule: Q01DX001 (ip), vehicle: saline sonified) was 100 % of control; the T/C (dose: 400.0 mg/kg/injection, schedule: Q01DX001 (ip), vehicle: saline sonified) was 95 % of control.
In the case of `Oc1ccccc1C=NCCN1CC1.Oc1ccccc1C=NCCN1CC1.[Cu]`, the T/C reads like this: (dose: 6.25 mg/kg/injection, schedule: Q01DX001 (ip), vehicle: saline sonified) 104 % of control; (dose: 8.25 mg/kg/injection, schedule: Q01DX001 (ip), vehicle: saline) 104 % of control; (dose: 12.5 mg/kg/injection, schedule: Q01DX001 (ip), vehicle: saline) 112 % of control; (dose: 18.75 mg/kg/injection, schedule: Q01DX001 (ip), vehicle: saline) 124 % of control; (dose: 25.0 mg/kg/injection, schedule: Q01DX001 (ip), vehicle: saline sonified) 118 % of control.
Take `CCCCOC(=O)c1ccc(OP(=O)(N(C)C)N(C)C)cc1`: the T/C by setting is: under setting [1], 100 % of control; under setting [2], 94 % of control; under setting [6], 87 % of control.
For `O=C1c2ccccc2C(=O)N1CN1CCN(c2ccc(F)cc2)CC1`, the T/C was 103 % of control (dose: 50.0 mg/kg/injection, schedule: Q01DX005 (ip), vehicle: saline with Tween-80); 94 % of control (dose: 100.0 mg/kg/injection, schedule: Q01DX005 (ip), vehicle: saline with Tween-80); 103 % of control (dose: 200.0 mg/kg/injection, schedule: Q01DX005 (ip), vehicle: saline with Tween-80).
As to `Clc1nnc(Nc2ccccc2)c2ccccc12`, the T/C by setting is: under setting [3], 100 % of control; under setting [4], 91 % of control; under setting [5], 104 % of control.

(Values after PubChem BioAssay AID328 (DTP/NCI, 2004).)
